Legend:
Assay in all cases: biochemical
Design in all cases: KINOMEscan competition binding panel, per cent of control
Conditions in all cases: read-out: %Ctrl @ 2800nM
[1] = molecular target: T1, ADCK3 (Homo sapiens, UniProt Q8NI60)
T1 construct: gene COQ8A
Procedure, shortened: (§1)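 Competition binding panel (KINOMEscan) across 450 human kinases and disease-relevant mutants, run to the contractor's standard protocol. Values are % control: (test signal − positive control signal)/(negative control signal − positive control signal) × 100, with lower values indicating stronger binding.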

[2] = molecular target: T2, AMPK-alpha2 (Homo sapiens, UniProt P54646)
T2 construct: gene PRKAA2
Procedure, shortened: as §1

[3] = molecular target: BMPR1A (Homo sapiens, UniProt P36894)
Procedure, shortened: as §1

[4] = molecular target: CAMK2G (Homo sapiens, UniProt Q13555)
Procedure, shortened: as §1

[5] = molecular target: CDK9 (Homo sapiens, UniProt P50750)
Procedure, shortened: as §1

[6] = molecular target: CHEK1 (Homo sapiens, UniProt O14757)
Procedure, shortened: as §1

[7] = molecular target: CSNK1E (Homo sapiens, UniProt P49674)
Procedure, shortened: as §1

[8] = molecular target: EGFR (Homo sapiens, UniProt P00533)
Procedure, shortened: as §1

[9] = molecular target: EPHA1 (Homo sapiens, UniProt P21709)
Procedure, shortened: as §1

[10] = molecular target: HUNK (Homo sapiens, UniProt P57058)
Procedure, shortened: as §1

[11] = molecular target: T3, JAK1(JH2domain-pseudokinase) (Homo sapiens, UniProt P23458)
T3 construct: JH2domain-pseudokinase
Procedure, shortened: as §1

[12] = molecular target: KIT-autoinhibited (Homo sapiens, UniProt P10721)
Procedure, shortened: as §1

[13] = molecular target: LCK (Homo sapiens, UniProt P06239)
Procedure, shortened: as §1

[14] = molecular target: MAP3K4 (Homo sapiens, UniProt Q9Y6R4)
Procedure, shortened: as §1

[15] = molecular target: T4, MEK2 (Homo sapiens, UniProt P36507)
T4 construct: gene MAP2K2
Procedure, shortened: as §1

[16] = molecular target: MET(Y1235D) (Homo sapiens, UniProt P08581, Y1235D)
Sequence of MET(Y1235D) (P08581 whole entry Y1235D): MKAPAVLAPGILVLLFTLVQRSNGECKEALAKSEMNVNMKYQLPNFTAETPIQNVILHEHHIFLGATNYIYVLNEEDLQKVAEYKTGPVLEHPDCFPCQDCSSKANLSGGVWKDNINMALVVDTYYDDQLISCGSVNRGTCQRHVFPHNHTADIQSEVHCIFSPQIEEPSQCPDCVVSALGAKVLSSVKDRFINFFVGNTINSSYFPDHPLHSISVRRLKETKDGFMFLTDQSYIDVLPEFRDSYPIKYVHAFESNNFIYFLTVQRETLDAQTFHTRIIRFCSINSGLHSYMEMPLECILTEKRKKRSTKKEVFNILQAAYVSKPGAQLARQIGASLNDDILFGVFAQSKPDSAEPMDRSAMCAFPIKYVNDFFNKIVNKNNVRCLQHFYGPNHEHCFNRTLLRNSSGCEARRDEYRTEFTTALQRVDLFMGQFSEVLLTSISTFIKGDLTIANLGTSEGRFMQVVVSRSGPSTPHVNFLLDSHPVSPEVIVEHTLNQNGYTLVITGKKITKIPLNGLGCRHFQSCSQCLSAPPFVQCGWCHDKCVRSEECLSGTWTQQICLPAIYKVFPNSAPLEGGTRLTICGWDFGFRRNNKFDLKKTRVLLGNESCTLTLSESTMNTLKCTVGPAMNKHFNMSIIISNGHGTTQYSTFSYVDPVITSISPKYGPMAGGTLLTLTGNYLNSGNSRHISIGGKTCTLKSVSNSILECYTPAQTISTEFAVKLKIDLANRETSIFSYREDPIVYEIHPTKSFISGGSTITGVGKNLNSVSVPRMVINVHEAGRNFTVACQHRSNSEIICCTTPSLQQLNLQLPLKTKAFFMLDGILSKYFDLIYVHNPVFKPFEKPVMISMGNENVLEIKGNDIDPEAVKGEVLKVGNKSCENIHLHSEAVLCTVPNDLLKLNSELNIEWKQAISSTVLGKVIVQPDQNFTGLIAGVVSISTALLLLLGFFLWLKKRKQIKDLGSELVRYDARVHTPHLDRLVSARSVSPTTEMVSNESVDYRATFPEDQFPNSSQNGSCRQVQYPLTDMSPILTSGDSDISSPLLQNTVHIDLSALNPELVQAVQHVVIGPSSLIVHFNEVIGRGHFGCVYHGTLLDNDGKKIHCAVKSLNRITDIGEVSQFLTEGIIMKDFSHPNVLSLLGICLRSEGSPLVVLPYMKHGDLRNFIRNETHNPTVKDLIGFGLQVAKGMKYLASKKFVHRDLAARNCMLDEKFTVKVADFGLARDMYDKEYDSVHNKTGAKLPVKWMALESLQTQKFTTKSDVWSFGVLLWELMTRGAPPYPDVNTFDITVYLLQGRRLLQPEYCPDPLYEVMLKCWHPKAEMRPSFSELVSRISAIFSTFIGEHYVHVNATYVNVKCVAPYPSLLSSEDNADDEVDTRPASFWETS
Procedure, shortened: as §1

[17] = molecular target: NEK1 (Homo sapiens, UniProt Q96PY6)
Sequence of NEK1 (Q96PY6 whole entry): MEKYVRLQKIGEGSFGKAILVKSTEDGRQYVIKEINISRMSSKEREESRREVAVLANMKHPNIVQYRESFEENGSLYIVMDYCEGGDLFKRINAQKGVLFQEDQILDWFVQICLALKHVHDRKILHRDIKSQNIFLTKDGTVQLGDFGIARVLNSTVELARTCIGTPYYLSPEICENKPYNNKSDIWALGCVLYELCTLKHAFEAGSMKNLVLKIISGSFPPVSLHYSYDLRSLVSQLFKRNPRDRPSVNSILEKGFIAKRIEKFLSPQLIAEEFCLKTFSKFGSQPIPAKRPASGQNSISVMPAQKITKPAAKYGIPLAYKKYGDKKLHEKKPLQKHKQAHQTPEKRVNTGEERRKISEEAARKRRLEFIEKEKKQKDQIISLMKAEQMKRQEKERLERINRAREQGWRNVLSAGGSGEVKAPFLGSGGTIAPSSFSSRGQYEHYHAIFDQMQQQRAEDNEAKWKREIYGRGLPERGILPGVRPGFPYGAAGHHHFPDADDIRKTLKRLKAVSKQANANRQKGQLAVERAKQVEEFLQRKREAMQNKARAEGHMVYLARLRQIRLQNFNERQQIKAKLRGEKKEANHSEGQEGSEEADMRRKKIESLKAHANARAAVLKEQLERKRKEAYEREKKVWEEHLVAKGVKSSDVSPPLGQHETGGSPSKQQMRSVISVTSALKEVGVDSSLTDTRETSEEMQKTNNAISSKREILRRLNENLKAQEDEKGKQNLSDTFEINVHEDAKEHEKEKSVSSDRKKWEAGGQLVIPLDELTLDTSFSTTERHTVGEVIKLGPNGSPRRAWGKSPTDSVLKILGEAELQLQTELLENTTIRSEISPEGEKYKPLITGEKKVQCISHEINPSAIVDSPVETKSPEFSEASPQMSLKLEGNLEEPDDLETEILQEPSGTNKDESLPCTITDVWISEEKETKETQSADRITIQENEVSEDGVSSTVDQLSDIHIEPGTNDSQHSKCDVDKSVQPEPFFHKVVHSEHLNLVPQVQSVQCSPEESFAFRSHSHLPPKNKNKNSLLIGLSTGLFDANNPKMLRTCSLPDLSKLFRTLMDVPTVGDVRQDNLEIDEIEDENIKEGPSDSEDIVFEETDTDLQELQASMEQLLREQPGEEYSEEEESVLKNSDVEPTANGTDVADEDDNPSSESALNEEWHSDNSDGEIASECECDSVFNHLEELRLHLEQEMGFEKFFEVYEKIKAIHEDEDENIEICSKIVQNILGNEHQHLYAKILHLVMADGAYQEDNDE
Procedure, shortened: as §1

[18] = molecular target: T5, PAK7 (Homo sapiens, UniProt Q9P286)
T5 construct: gene PAK5
Procedure, shortened: as §1

[19] = molecular target: PHKG2 (Homo sapiens, UniProt P15735)
Procedure, shortened: as §1

[20] = molecular target: PIK3CG (Homo sapiens, UniProt P48736)
Sequence of PIK3CG (P48736 whole entry): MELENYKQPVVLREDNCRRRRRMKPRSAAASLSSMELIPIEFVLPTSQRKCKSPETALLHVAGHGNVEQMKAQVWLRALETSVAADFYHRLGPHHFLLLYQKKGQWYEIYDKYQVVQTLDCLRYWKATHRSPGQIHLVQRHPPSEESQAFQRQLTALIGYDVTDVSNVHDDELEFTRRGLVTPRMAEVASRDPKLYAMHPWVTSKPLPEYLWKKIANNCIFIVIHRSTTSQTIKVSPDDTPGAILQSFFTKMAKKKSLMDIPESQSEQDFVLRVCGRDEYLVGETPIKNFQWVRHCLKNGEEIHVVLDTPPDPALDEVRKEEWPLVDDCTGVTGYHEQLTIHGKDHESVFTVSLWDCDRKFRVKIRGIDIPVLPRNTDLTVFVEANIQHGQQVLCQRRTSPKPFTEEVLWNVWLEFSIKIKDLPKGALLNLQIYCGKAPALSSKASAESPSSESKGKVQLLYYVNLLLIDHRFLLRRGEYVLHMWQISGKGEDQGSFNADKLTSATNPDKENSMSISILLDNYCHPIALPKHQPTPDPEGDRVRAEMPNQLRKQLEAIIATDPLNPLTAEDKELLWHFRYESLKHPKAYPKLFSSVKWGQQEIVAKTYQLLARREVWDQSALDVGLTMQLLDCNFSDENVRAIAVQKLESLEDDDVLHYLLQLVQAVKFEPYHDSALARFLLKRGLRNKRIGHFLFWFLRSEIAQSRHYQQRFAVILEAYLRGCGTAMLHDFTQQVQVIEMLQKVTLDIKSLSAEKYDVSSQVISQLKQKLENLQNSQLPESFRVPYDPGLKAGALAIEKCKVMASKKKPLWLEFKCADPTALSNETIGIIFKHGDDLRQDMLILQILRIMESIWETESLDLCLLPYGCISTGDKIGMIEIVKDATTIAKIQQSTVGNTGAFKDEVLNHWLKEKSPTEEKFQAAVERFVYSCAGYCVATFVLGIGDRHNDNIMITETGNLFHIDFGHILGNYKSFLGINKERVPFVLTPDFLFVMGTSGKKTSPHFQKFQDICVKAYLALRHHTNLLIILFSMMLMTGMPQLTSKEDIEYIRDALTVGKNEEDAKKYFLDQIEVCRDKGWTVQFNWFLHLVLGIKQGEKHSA
Procedure, shortened: as §1

[21] = molecular target: T6, PIK4CB (Homo sapiens, UniProt Q9UBF8)
T6 construct: gene PI4KB
Procedure, shortened: as §1

[22] = molecular target: T7, PKAC-beta (Homo sapiens, UniProt P22694)
T7 construct: gene PRKACB
Procedure, shortened: as §1

[23] = molecular target: RET(V804M) (Homo sapiens, UniProt P07949, V804M)
Procedure, shortened: as §1

[24] = molecular target: RIPK2 (Homo sapiens, UniProt O43353)
Sequence of RIPK2 (O43353 whole entry): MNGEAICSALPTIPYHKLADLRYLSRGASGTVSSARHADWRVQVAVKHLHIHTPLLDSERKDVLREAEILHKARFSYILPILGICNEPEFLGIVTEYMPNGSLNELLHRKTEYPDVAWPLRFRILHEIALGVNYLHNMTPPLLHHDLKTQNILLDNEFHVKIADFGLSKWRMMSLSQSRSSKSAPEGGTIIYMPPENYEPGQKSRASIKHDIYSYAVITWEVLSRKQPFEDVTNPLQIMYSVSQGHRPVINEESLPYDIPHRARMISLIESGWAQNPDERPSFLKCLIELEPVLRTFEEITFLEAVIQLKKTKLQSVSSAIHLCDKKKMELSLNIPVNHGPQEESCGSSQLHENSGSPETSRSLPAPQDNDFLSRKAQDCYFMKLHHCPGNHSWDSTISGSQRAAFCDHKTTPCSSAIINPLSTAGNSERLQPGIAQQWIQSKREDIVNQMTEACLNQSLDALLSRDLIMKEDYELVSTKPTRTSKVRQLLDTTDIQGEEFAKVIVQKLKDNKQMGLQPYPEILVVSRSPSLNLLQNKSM
Procedure, shortened: as §1

[25] = molecular target: T8, RSK2(Kin.Dom.1-N-terminal) (Homo sapiens, UniProt P51812)
T8 construct: gene RPS6KA3; Kin.Dom.1-N-terminal
T8 sequence (P51812 whole entry): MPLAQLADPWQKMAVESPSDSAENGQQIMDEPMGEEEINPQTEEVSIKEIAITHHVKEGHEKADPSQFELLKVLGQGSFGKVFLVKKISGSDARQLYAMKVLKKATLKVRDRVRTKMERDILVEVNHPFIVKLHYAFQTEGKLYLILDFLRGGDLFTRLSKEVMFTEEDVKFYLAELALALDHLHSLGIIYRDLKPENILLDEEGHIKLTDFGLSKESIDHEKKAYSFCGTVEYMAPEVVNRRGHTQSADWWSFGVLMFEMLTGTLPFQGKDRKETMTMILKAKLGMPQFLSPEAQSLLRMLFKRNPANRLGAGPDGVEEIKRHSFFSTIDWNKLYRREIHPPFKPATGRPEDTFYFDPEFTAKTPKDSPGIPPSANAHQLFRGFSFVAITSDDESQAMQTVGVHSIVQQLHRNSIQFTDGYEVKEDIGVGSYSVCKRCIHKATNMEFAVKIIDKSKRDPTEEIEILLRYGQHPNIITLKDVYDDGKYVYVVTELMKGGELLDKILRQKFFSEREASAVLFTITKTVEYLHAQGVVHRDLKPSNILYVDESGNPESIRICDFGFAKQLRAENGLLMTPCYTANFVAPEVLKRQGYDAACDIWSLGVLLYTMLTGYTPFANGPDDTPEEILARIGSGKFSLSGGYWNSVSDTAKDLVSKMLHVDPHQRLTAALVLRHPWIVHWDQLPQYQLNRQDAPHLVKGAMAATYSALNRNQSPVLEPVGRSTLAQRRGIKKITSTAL
Procedure, shortened: as §1

[26] = molecular target: TAOK1 (Homo sapiens, UniProt Q7L7X3)
Procedure, shortened: as §1

Q: With `[O-][S@@+](Cc1cncs1)C(c1ccccc1)c1ccccc1` [S-CE-123, (S)-5-((Benzhydrylsulfinyl)Methyl)Thiazole] as the molecule, how does the remaining binding at 2.8 µM [1] read?
A: 87%

Q: And the remaining binding at 2.8 µM [2]?
A: 97%

Q: And the remaining binding at 2.8 µM [3]?
A: 100%

Q: What about the remaining binding at 2.8 µM [4] of the same molecule?
A: 95%

Q: And the remaining binding at 2.8 µM [5]?
A: 92%

Q: And the remaining binding at 2.8 µM [6]?
A: 89%

Q: And the remaining binding at 2.8 µM [7]?
A: 96%

Q: And the remaining binding at 2.8 µM [8]?
A: 92%

Q: And the remaining binding at 2.8 µM [9]?
A: 96%

Q: What about the remaining binding at 2.8 µM [10] of the same molecule?
A: 100%

Q: What about the remaining binding at 2.8 µM [11] of the same molecule?
A: 92%

Q: What about the remaining binding at 2.8 µM [12] of the same molecule?
A: 86%

Q: What about the remaining binding at 2.8 µM [13] of the same molecule?
A: 100%

Q: And the remaining binding at 2.8 µM [14]?
A: 84%

Q: And the remaining binding at 2.8 µM [15]?
A: 93%

Q: And the remaining binding at 2.8 µM [16]?
A: 99%

Q: What about the remaining binding at 2.8 µM [17] of the same molecule?
A: 90%

Q: What about the remaining binding at 2.8 µM [18] of the same molecule?
A: 98%

Q: And the remaining binding at 2.8 µM [19]?
A: 96%

Q: What about the remaining binding at 2.8 µM [20] of the same molecule?
A: 70%

Q: What about the remaining binding at 2.8 µM [21] of the same molecule?
A: 94%

Q: What about the remaining binding at 2.8 µM [22] of the same molecule?
A: 100%

Q: What about the remaining binding at 2.8 µM [23] of the same molecule?
A: 95%

Q: And the remaining binding at 2.8 µM [24]?
A: 100%

Q: And the remaining binding at 2.8 µM [25]?
A: 100%

Q: What about the remaining binding at 2.8 µM [26] of the same molecule?
A: 100%

From publication PMC10046369, “Low-Affinity/High-Selectivity Dopamine Transport Inhibition Sufficient to Rescue Cognitive Functions in the Aging Rat” (Biomolecules, 2023)
